Data published in patent US12702689B2, “Anti-inflammatory compositions, and uses thereof” (P.L. THOMAS & CO., INC., priority 2022, dated 2026).

Tests used:
[1] = test system: gut microbiota including Akkermansia; Bifidobacteria; details: in vitro; cited from earlier work
[2] = test system: ovalbumin-induced allergic airway inflammation (lung); assay: Lung tissue histology and scoring in OVA allergic airway model; type: in vivo, BALB/cJ female mice; details: OVA+AKBA mice, 100 mg/kg AKBA
Source text: Allergic airway phenotype was induced by using an ovalbumin (OVA, hen egg) sensitization and challenge model as previously described with modifications [Beigelman, A. et al. Azithromycin attenuates airway inflammation in a noninfectious mouse model of allergic asthma. Chest 136, 498-506 (2009)]. Briefly (FIG. 1), two groups of mice (OVA control and OVA+AKBA) were sensitized with intraperitoneal ovalbumin plus alum on days 0 and 7, challenged for 3 days (day 14 to day 17) via nebulized OVA at 1% in PBS for 30 mins, and harvested 48 hr after final challenge. Supplementation groups (OVA+AKBA) were given 100 mg/kg of water soluble AKBA (pH 7) (PLT Health Solutions, Morristown, NJ, US) in autoclaved mouse water, via gavage, every other day for 10 days and then every day for the remainder of the experiment (9 days). OVA control and naïve mouse continued to receive normal autoclaved mouse water. Mice were weighted at the beginning and end of the experiment. Experiments involving AKBA were conducted twice, with the first group containing 5 mice per group and the second containing 15 mice per group (5 per group for naive). […]
Lung sectioning and staining was performed by the UConn Health Research Histology Core (Farmington, CT, US). […] Sections from the left lung were evaluated in their entirety and representative were images taken. […]

Compound: CC(=O)O[C@@H]1CC[C@@]2(C)[C@@H](CC[C@]3(C)[C@@H]2C(=O)C=C2[C@@H]4[C@@H](C)[C@H](C)CC[C@]4(C)CC[C@]23C)[C@@]1(C)C(=O)O [AKBA, 3-O-acetyl-11-keto-b-boswellic acid]
- effect on certain gut microbiota including Akkermansia [1]: selectively inhibited
- feeding effect on Bifidobacteria [1]: no direct feeding effect
- histology score: inflammation and airway smooth muscle remodeling ([2]; score 0-3, blinded, p=0.1823 vs OVA control): 2.0±0.49
- histology score: mucus production ([2]; score 0-3, p=0.0278 vs OVA control): 2.0±0.4
